# Assay results published in patent publication US20250127874A1, “CMV EPITOPES” (The Council of the Queensland Institute of Medical Research, priority 2016, published 2025).
# Test system: CD8+ T cells
# Experiment: PBMC from HSCT recipients stimulated with HLA-matched peptide epitopes, cultured two weeks with IL-2, IFN-γ production by CD8+ T cells on recall
# Excerpt: To assess the impact of epitope variation and co-infection on IE-1 specific T cell immunity, PBMC samples from HSCT recipients showing evidence of viral reactivation were stimulated with all potentially HLA-matched variant peptide epitopes then cultured in vitro for two weeks in the presence of IL-2. PBMC from nine HSCT recipients showing immune reconstitution with no evidence of CMV reactivation were also stimulated with HLA-matched variant peptide epitopes (Table 2). As a control, PBMC were stimulated with at least two conserved HLA matched epitopes.
Sequence,T cell response against epitope (HLA B44-positive HSCT recipients with reactivation (7)),"T cell response against epitope (recipient 17 (HLA-B8), longitudinal analysis during and after viral reactivation)"
EDAIAAYTL (Cytomegalovirus),failed to induce a significant T cell response in any recipient,–
VTEHDTTLY,–,absence of a detectable response
